Tests used:
[1] = 101 kPa, Liquid
[2] = refractive index (Na D-line) (dimensionless); conditions: 293.1 K; 101.33 kPa; Liquid; Standard Abbe refractometry
[3] = xn = mol fraction of the nth substance listed; conditions: 101 kPa, Liquid

CN1CCCC1=O [N-methylpyrrolidone]
[1]
Conditions	mass density [kg/m3]
293.15 K	1032.66
303.15 K	1023.42
313.15 K	1014.27
323.15 K	1005.62
333.15 K	996.28
343.15 K	987.39
353.15 K	978.62

Conditions	refractive index
[2]	1.4677

CN1CCCC1=O [N-methylpyrrolidone] + CCc1ccccc1
[3], x2 = 0
Conditions	mass density [kg/m3]
293.15 K	1032.66
303.15 K	1023.42
313.15 K	1014.27
323.15 K	1005.62
333.15 K	996.28
343.15 K	987.39
353.15 K	978.62

c1ccccc1 [benzene]
[1]
Conditions	mass density [kg/m3]
293.15 K	878.96
303.15 K	868.21
313.15 K	857.4
323.15 K	846.55
333.15 K	835.66
343.15 K	824.71

Conditions	refractive index
[2]	1.5009

c1ccccc1 [benzene] + CN1CCCC1=O
[3], x1 = 1
Conditions	mass density [kg/m3]
293.15 K	878.96
303.15 K	868.21
313.15 K	857.4
323.15 K	846.55
333.15 K	835.66
343.15 K	824.71

CCc1ccccc1 [ethylbenzene]
[1]
Conditions	mass density [kg/m3]
293.15 K	867.28
303.15 K	858.36
313.15 K	849.38
323.15 K	840.35
333.15 K	831.25
343.15 K	822.11
353.15 K	812.9

Conditions	refractive index
[2]	1.4962

Cc1ccccc1 [toluene]
[1]
Conditions	mass density [kg/m3]
293.15 K	866.8
303.15 K	857.53
313.15 K	848.23
323.15 K	838.91
333.15 K	829.55
343.15 K	820.17
353.15 K	810.77

Conditions	refractive index
[2]	1.4965

Cc1ccccc1 [toluene] + CN1CCCC1=O
[3], x1 = 1
Conditions	mass density [kg/m3]
293.15 K	866.8
303.15 K	857.53
313.15 K	848.23
323.15 K	838.91
333.15 K	829.55
343.15 K	820.17
353.15 K	810.77

Reference: the NIST ThermoML archive (doi:10.1016/j.jct.2006.05.006)
